Where “and” joins values, the source holds several entries; their conditions need not be identical. Equal entries are not always repeated.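 Briefly, cells in 96-well plates were exposed to five compound concentrations for 48 h, and endpoints were estimated by linear interpolation. GI50 = concentration required for 50% inhibition of growth.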 Calls of active or inactive are those of the source. Cut-off read from the data, not from the text of the source: active = GI50 up to about 1.1 µM and inactive = higher.
Legend:
Assay in all cases: NCI-60 cell line screen, 48 h
LOX IMVI = test system: LOX IMVI
NCI-H460 = test system: NCI-H460
M14 = test system: M14
U-251 = test system: U-251
UACC-257 = test system: UACC-257
RXF 393 = test system: RXF 393
HCT-15 = test system: HCT-15
A498 = test system: A498
EKVX = test system: EKVX
HT-29 = test system: HT-29
NCI-H23 = test system: NCI-H23
CCRF-CEM = test system: CCRF-CEM
K562 = test system: K562
IGROV-1 = test system: IGROV-1
HOP-62 = test system: HOP-62
Hs-578T = test system: Hs-578T
UO-31 = test system: UO-31
MDA-MB-435 = test system: MDA-MB-435
HCT-116 = test system: HCT-116
NCI-H522 = test system: NCI-H522
T47D = test system: T47D
BT-549 = test system: BT-549
MDA-N = test system: MDA-N
DU-145 = test system: DU-145
SR = test system: SR
MOLT-4 = test system: MOLT-4
OVCAR-4 = test system: OVCAR-4
MCF7 = test system: MCF7
SK-MEL-28 = test system: SK-MEL-28
ACHN = test system: ACHN
A549 = test system: A549
COLO 205 = test system: COLO 205
HL-60 = test system: HL-60
RPMI-8226 = test system: RPMI-8226
SN12C = test system: SN12C
SNB-75 = test system: SNB-75
PC-3 = test system: PC-3
OVCAR-8 = test system: OVCAR-8
HCC 2998 = test system: HCC 2998
TK-10 = test system: TK-10
HOP-92 = test system: HOP-92
KM12 = test system: KM12
OVCAR-5 = test system: OVCAR-5
SW-620 = test system: SW-620
SK-MEL-2 = test system: SK-MEL-2
SK-OV-3 = test system: SK-OV-3
SNB-19 = test system: SNB-19
MDA-MB-231 = test system: MDA-MB-231
CAKI-1 = test system: CAKI-1
OVCAR-3 = test system: OVCAR-3
SF-295 = test system: SF-295
SK-MEL-5 = test system: SK-MEL-5
UACC-62 = test system: UACC-62
Malme-3M = test system: Malme-3M
SF-268 = test system: SF-268
786-0 = test system: 786-0
NCI-H226 = test system: NCI-H226
SF-539 = test system: SF-539

Measured: GI50

CC(=O)O[C@H]1CC2C(C3CC[C@H](C(C)CCC(=O)O)[C@]31C)[C@H](OC(C)=O)C[C@@H]1CC3(CC[C@]21C)OOC1(CCC(C)CC1)OO3 (some centres not stated)
2.37 µM and 2.96 µM: HCT-15
inactive: LOX IMVI 2.15 µM and 3.27 µM | NCI-H460 2.33 µM and 3.53 µM | M14 3.49 µM and 6.67 µM | U-251 1.76 µM and 3.35 µM | UACC-257 6.92 µM and 11.7 µM | RXF 393 7.82 µM and 12.9 µM | A498 15 µM and 13 µM | EKVX 2.08 µM | HT-29 2.11 µM and 1.81 µM | NCI-H23 2.28 µM and 4.31 µM | CCRF-CEM 1.67 µM and 2.03 µM | K562 3.13 µM and 3.9 µM | IGROV-1 2.01 µM | HOP-62 3.16 µM | Hs-578T 3.4 µM and 1.76 µM | UO-31 2.61 µM | MDA-MB-435 2.62 µM and 4.74 µM | HCT-116 2.16 µM and 4.11 µM | NCI-H522 2.98 µM and 1.61 µM | T47D 3.07 µM and 2.31 µM | BT-549 3.69 µM and 2.74 µM | MDA-N 3.77 µM and 5.71 µM | DU-145 3.32 µM and 4.98 µM | SR 1.55 µM | MOLT-4 2.2 µM and 1.51 µM | OVCAR-4 2.56 µM and 2.32 µM | MCF7 2.96 µM and 4.86 µM | SK-MEL-28 2.06 µM and 1.66 µM | ACHN 2.59 µM and 4.31 µM | A549 1.55 µM and 2.82 µM | COLO 205 2.53 µM | HL-60 2.97 µM and 2.37 µM | RPMI-8226 1.91 µM and 2.05 µM | SN12C 2.72 µM and 4.18 µM | SNB-75 1.6 µM | PC-3 5.15 µM and 3.17 µM | OVCAR-8 1.98 µM and 2.85 µM

CC(=O)OC1COC(N2c3ccccc3[C@@H]3CCc4c([nH]c5ccccc45)[C@@H]32)C(OC(C)=O)C1OC(C)=O.CC(=O)OC1COC(N2c3ccccc3[C@H]3CCc4c([nH]c5ccccc45)[C@H]32)C(OC(C)=O)C1OC(C)=O (some centres not stated)
inactive: HCC 2998 40.1 µM | NCI-H460 40.6 µM | TK-10 > 100 µM | HOP-92 57.7 µM | KM12 12.1 µM | M14 42.6 µM | OVCAR-5 > 100 µM | U-251 80.7 µM | UACC-257 72.1 µM | A498 17.7 µM | EKVX 19 µM | HT-29 62.2 µM | SW-620 > 100 µM | NCI-H23 57.8 µM | CCRF-CEM 26.5 µM | SK-MEL-2 44.1 µM | IGROV-1 2.76 µM | SK-OV-3 44.9 µM | HOP-62 > 100 µM | SNB-19 > 100 µM | MDA-MB-231 14 µM | Hs-578T 21.4 µM | UO-31 9.79 µM | MDA-MB-435 51.8 µM | HCT-116 14.3 µM | NCI-H522 12.8 µM | CAKI-1 27.7 µM | BT-549 56.9 µM | MDA-N 65.3 µM | OVCAR-3 26.1 µM | SF-295 21.6 µM | DU-145 > 100 µM | SR 11.6 µM | MOLT-4 5.79 µM | OVCAR-4 71.8 µM | SK-MEL-5 29.3 µM | SK-MEL-28 > 100 µM | A549 16.7 µM | COLO 205 19.2 µM | RPMI-8226 12 µM | SN12C 59.3 µM | SNB-75 11.4 µM | UACC-62 60.5 µM | Malme-3M > 100 µM | PC-3 16.2 µM | SF-268 30.9 µM
47 µM: HCT-15

C=C1CC23CCC4C(C)(C(=O)O)CCCC4(C)C2CCC1C3 (configuration not stated)
36.2 µM: HCT-15
inactive: LOX IMVI 30.7 µM | HCC 2998 17.1 µM | NCI-H460 21 µM | TK-10 38.4 µM | HOP-92 32.8 µM | KM12 41.6 µM | M14 56 µM | 786-0 40.6 µM | OVCAR-5 95.3 µM | U-251 48.1 µM | UACC-257 36.8 µM | RXF 393 33.5 µM | A498 39.5 µM | EKVX 20.6 µM | HT-29 42.7 µM | SW-620 30.3 µM | NCI-H23 41.9 µM | CCRF-CEM 25.1 µM | K562 46.3 µM | SK-MEL-2 42.3 µM | IGROV-1 24.4 µM | SK-OV-3 44.5 µM | HOP-62 > 100 µM | SNB-19 53.1 µM | MDA-MB-231 25.9 µM | Hs-578T 44.3 µM | UO-31 28.8 µM | MDA-MB-435 62.1 µM | HCT-116 32.7 µM | NCI-H522 23.8 µM | CAKI-1 22.3 µM | T47D 38 µM | BT-549 26.3 µM | MDA-N 64 µM | OVCAR-3 30.4 µM | SF-295 35.3 µM | DU-145 65.3 µM | SR 33.3 µM | OVCAR-4 58.5 µM | MCF7 47.3 µM | SK-MEL-28 > 100 µM | ACHN 36.5 µM | A549 35.5 µM | COLO 205 19.7 µM | RPMI-8226 47.4 µM | SN12C 38 µM | SNB-75 47.8 µM | NCI-H226 55.7 µM | UACC-62 52.4 µM | SF-539 74 µM | Malme-3M 94 µM | PC-3 37.7 µM | OVCAR-8 41.7 µM | SF-268 63.1 µM

O=C1OC(c2ccc([N+](=O)[O-])cc2)=N/C1=C\c1ccc(O)cc1
inactive: LOX IMVI > 100 µM | HCC 2998 > 100 µM | NCI-H460 > 100 µM | TK-10 > 100 µM | HOP-92 > 100 µM | KM12 > 100 µM | M14 > 100 µM | 786-0 > 100 µM | OVCAR-5 > 100 µM | U-251 > 100 µM | UACC-257 > 100 µM | RXF 393 > 100 µM | A498 > 100 µM | EKVX > 100 µM | HT-29 > 100 µM | SW-620 > 100 µM | NCI-H23 > 100 µM | CCRF-CEM > 100 µM | K562 > 100 µM | SK-MEL-2 > 100 µM | IGROV-1 > 100 µM | SK-OV-3 > 100 µM | HOP-62 > 100 µM | SNB-19 > 100 µM | MDA-MB-231 > 100 µM | Hs-578T > 100 µM | MDA-MB-435 > 100 µM | HCT-116 > 100 µM | NCI-H522 > 100 µM | CAKI-1 > 100 µM | T47D > 100 µM | BT-549 > 100 µM | MDA-N > 100 µM | OVCAR-3 > 100 µM | SF-295 > 100 µM | DU-145 > 100 µM | SR > 100 µM | MOLT-4 > 100 µM | OVCAR-4 > 100 µM | SK-MEL-5 > 100 µM | MCF7 > 100 µM | SK-MEL-28 > 100 µM | ACHN > 100 µM | A549 > 100 µM | COLO 205 > 100 µM | HL-60 > 100 µM | RPMI-8226 > 100 µM | SN12C > 100 µM | SNB-75 > 100 µM | NCI-H226 > 100 µM | UACC-62 > 100 µM | SF-539 > 100 µM | Malme-3M > 100 µM | PC-3 > 100 µM | OVCAR-8 > 100 µM | SF-268 > 100 µM
> 100 µM: HCT-15
